From publication PMC4047164 (Biochimica et biophysica acta, 2014)
≈ marks a conversion by molar mass, not a printed value. Where two headings read alike, the source gives them in different places.

Legend:
NdhC [1] = biological target: T1, NdhC (Staphylococcus aureus, UniProt Q2YWP9); test: Inhibition of purified NdhC NADH dehydrogenase activity with DMN in detergent; format: biochemical, S. aureus; settings: read-out: % of Inhibition by 50 μM phenothiazines, NdhC, DMN
S. aureus [2] = settings: cited from earlier work
S. aureus [3] = test: Drug susceptibility determination; format: cell-based; settings: Staphylococcus aureus, 20 h
S. aureus cells = test: Membrane potential of intact cells by DisC3; format: cell-based
[4] = tested on: inverted membrane vesicles from E. coli; format: biochemical
NdhC [5] = biological target: T1, NdhC; test: biochemical; parameters: species or system S. aureus; settings: read-out: % of Inhibition by 50 μM phenothiazines, NdhC, Q8
S. aureus membranes = test: NADH-driven respiration; format: biochemical; settings: for Inhibition of NADH-dependent oxygen consumption: 50 μM compound, membranes ∼ 200 μg/ml
NdhF [6] = biological target: T2, NdhF (Staphylococcus aureus, UniProt Q2FZW0); test: biochemical; settings: read-out: % of Inhibition by 50 μM phenothiazines, NdhF, DMN
NdhF [7] = biological target: T2, NdhF; test: biochemical; settings: read-out: % of Inhibition by 50 μM phenothiazines, NdhF, Q8
[8] = tested on: inverted membrane vesicles from E. coli; format: biochemical; settings: NADH-energized vesicles
[9] = tested on: isolated rat liver mitochondria; settings: cited from earlier work
[10] = control agents, Figure S5, concentration not given
[11] = Figure 5 legend, concentration not given

T1 sequence (Q2YWP9 whole entry): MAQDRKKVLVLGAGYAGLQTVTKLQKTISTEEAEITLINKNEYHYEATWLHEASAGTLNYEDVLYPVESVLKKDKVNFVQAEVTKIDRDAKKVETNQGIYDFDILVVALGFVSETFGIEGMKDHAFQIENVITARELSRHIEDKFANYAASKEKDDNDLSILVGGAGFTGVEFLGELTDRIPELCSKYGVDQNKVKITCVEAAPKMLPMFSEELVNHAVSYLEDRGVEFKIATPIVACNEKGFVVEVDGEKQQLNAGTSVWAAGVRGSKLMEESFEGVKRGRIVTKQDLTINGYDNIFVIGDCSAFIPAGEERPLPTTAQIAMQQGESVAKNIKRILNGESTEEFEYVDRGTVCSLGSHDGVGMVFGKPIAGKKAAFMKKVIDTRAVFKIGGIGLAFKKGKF

Row | SMILES | inhibition at 50 µM (NdhC [1]) | reported MIC values for inhibition of growth (S. aureus [2]) | MIC (S. aureus [3]) | Effect on pH gradient (ACMA fluorescence) [4, 10] | Inhibition of NADH-dependent oxygen consumption (S. aureus membranes) | Effect on membrane potential (Oxonol VI fluorescence) [8, 11] | further results
1 | CN(C)CCCN1c2ccccc2Sc2ccc(Cl)cc21 [CPZ, Chlorpromazine] | 73 ± 8% | 90 to 125 µM | 170 ± 15 µM (≈ 54.2 µg/mL) |  |  |  | 
2 | N#CC(C#N)=NNc1cccc(Cl)c1 [CCCP] |  |  |  |  |  |  | Effect on membrane potential (DisC3(5) fluorescence) (S. aureus cells; 1 μM CCCP, validation control): rapid collapse of the membrane potential
3 | C(=NC1CCCCC1)=NC1CCCCC1 [DCCD] |  |  |  | collapse of the pH gradient |  |  | 
4 | CN1CCN(CCCN2c3ccccc3Sc3ccc(C(F)(F)F)cc32)CC1 [TPZ, Trifluoperazine] | 54 ± 6% | 40 to 60 µM | 70 ± 10 µM (≈ 28.5 µg/mL) |  | fully inhibited |  | inhibition at 50 µM (NdhC [5]): 80 ± 10%; NADH-driven respiration in presence of 50 μM TPZ (S. aureus membranes; 50 μM TPZ, uninhibited activity 659 ± 28): 8 ± 1 μmole O2 mg^-1 protein s^-1; IC50 (S. aureus membranes; read-out: IC50, respiration of S. aureus membranes, NADH as electron donor): 18.5 ± 3 µM; inhibition at 50 µM (NdhF [6]): 0%; inhibition at 50 µM (NdhF [7]): 0%
5 | CSc1ccc2c(c1)N(CCC1CCCCN1C)c1ccccc1S2 (stereo not shown) [TZ, Thioridazine] |  | 40 to 60 µM | 70 ± 9 µM (≈ 25.9 µg/mL) |  | fully inhibited | dissipation of the membrane potential | Effect on membrane potential (DisC3(5) fluorescence) (S. aureus cells; 50 μM TZ): rapid collapse of the membrane potential; Effect on membrane potential (DisC3(5) fluorescence) (S. aureus cells; different TZ concentrations, immediate, concentration-dependent (Figure 3A)): collapse of the membrane potential; Effect on membrane potential (Oxonol VI fluorescence) ([8]; 10 μM TZ): completely dissipated; Uncoupler activity [9]: weak uncoupler of oxidative phosphorylation; Effect on pH gradient (ACMA fluorescence) ([4]; 3 μM TZ, gradient generated by the ATPase or by succinate-driven respiration): completely collapse the pH gradient
6 | CC(C)(C)c1cc(C=C(C#N)C#N)cc(C(C)(C)C)c1O [SF6847] |  |  |  | collapse of the pH gradient |  | dissipation of the membrane potential | 
